The source made the active and inactive calls. The rule behind the calls is not given here.
assay: modulators of 2-deoxyglucose-induced H9c2 death, dose response, myocardial damage modulator project, cell-based, ATPlite luminescence, rat, set 2 (AID 602210); conditions: H9c2 rat cardiomyoblasts, 2-deoxyglucose-induced death, 2 h

Row | SMILES | IC50
1 | COc1cccc(CN2CCN(C(=O)c3cc(-c4cccnc4)nc4ccc(C)cc34)CC2)c1 | 48.8 µM (inactive)
2 | COc1ccc(-c2cc(C(=O)N(C)Cc3ccccc3F)c3ccccc3n2)cc1OC | 13.5 µM (inactive)
3 | C[C@@H]1CN([C@@H](C)CO)C(=O)c2cc(NC(=O)Nc3ccccc3)ccc2O[C@H]1CN(C)C(=O)Nc1cccc2ccccc12 | 15 µM (inactive)
4 | COCCCNC(=O)/C(C#N)=C1\N=C(NC(=O)c2cccs2)c2ccccc21 | > 79 µM (inactive)
5 | Cc1ccc(C(C(=O)NCc2ccccc2)N(Cc2ccco2)C(=O)c2snc(C(N)=O)c2N)o1 (stereo not given) | 8.59 µM
6 | O=C(N/N=C/c1ccncc1)c1ccc(COc2cccc3cccnc23)cc1 | > 79 µM (inactive)
7 | Cc1[nH]c2ccccc2c1/C=N/NC(=O)c1cc(-c2ccccc2)n[nH]1 | 8.98 µM
8 | O=C(Nc1ccccc1)c1nc[nH]c1C(=O)NCCCCCCNC(=O)c1[nH]cnc1C(=O)Nc1ccccc1 | 4.44 µM
9 | COc1cccc(-c2cnc3c(NC=O)cc(-c4cc(OC)c(OC)c(OC)c4)cn23)c1 | 14.2 µM (inactive)
10 | COc1ccc(-c2csc(NC(=O)CCCc3nc4ccccc4c(=O)[nH]3)n2)cc1OC | 23.3 µM (inactive)
11 | NC(=O)c1nsc(C(=O)N(c2ccccc2)C(C(=O)NC2CCCC2)c2ccc3ncccc3c2)c1N (stereo not given) | 6.5 µM
12 | Cc1cc(C)cc(OCC(=O)Nc2cccc(-c3nc4ncccc4o3)c2)c1 | 14.3 µM (inactive)
13 | COc1cccc(-c2nn(-c3ccccc3)cc2C(=O)Nc2nccs2)c1 | 16.3 µM (inactive)
14 | CCn1c(=O)cc(OCC(=O)Nc2ccccc2C#N)c2ccccc21 | 43.9 µM (inactive)
15 | COc1ccccc1OCC(=O)N/N=C/c1cccc2cccnc12 | > 79 µM (inactive)
16 | Brc1ccc(-c2ccc(/C=N/Nc3nc(N4CCOCC4)nc(N4CCOCC4)n3)o2)cc1 | 5.7 µM
17 | Cc1cc(NC(=O)c2cccs2)cc(-c2nc3ncccc3o2)c1O | > 79 µM (inactive)
18 | CN(C)S(=O)(=O)n1cc(/C=C(\NC(=O)c2ccccc2F)C(=O)NCCN2CCOCC2)c2ccccc21 | > 79 µM (inactive)
19 | O=c1[nH]c(CSc2nnc(-c3cccnc3)n2C2CCCCC2)nc2ccccc12 | > 79 µM (inactive)
20 | CC(C)c1ccccc1NC(=O)COC(=O)c1c2c(nc3ccccc13)CCN(Cc1ccccc1)C2 | 7.98 µM
21 | Cc1c(/C=N/NC(=O)c2ccc(O)cc2)c2ccccn2c1C(=O)c1ccc(F)cc1 | > 79 µM (inactive)
22 | COc1ccc(C(C(=O)NC2CCCC2)N(C(=O)c2snc(C(N)=O)c2N)c2cccc(O)c2)cc1 (stereo not given) | 13.3 µM (inactive)
23 | COCc1c(C(=O)Nc2ccc3nc(N4CCOCC4)sc3c2)oc2ccccc12 | 15 µM (inactive)

Row | SMILES | IC50
24 | C#CCOc1nc(Nc2cccc([N+](=O)[O-])c2)nc(OCC#C)n1 | 24.9 µM (inactive)
25 | COc1ccc(CCNC(=O)C(=O)NCC2CCCN2S(=O)(=O)c2ccccc2)cc1OC (stereo not given) | 15.4 µM (inactive)
26 | CC(=O)Nc1cccc(NC(=O)c2cc(-c3cccnc3)nc3ccc(Br)cc23)c1 | > 79 µM (inactive)
27 | O=C(CN1C(=O)C2CC=CCC2C1=O)Nc1nc(-c2ccc(F)cc2)cs1 (stereo not given) | > 79 µM (inactive)
28 | Cn1nc(C(=O)Nc2nc(-c3ccccn3)cs2)c2ccccc2c1=O | > 79 µM (inactive)
29 | CCOc1cccc(-c2nn3c(-c4ccccn4)nnc3s2)c1 | 30.2 µM (inactive)
30 | O=C(Nc1cccc(NC(=O)c2ccc([N+](=O)[O-])o2)c1)c1ccco1 | 3.85 µM
31 | COc1cc(NC(=O)c2cc3c(C)nc4ccccc4c3o2)cc(OC)c1OC | 11.2 µM (inactive)
32 | O=C(COC(=O)c1ccccc1C(=O)OCC(=O)NCCc1c[nH]c2ccccc12)NCCc1c[nH]c2ccccc12 | 9.24 µM
33 | COc1cccc(Nc2nc3ccccc3n3nnnc23)c1 | > 79 µM (inactive)
34 | COC(=O)c1cc2ccc(OC)cc2c2cc(OC)c(OC)cc12 | > 79 µM (inactive)
35 | Cc1nn(-c2ccccc2)c(C)c1/C=N/NC(=O)c1cc(C(C)(C)C)[nH]n1 | 44.7 µM (inactive)
36 | COC(=O)c1cc(NC(=O)Nc2cc(OC)ccc2OC)cc(C(=O)OC)c1 | > 79 µM (inactive)
37 | CC1(C)Oc2ccc3ccc(=O)oc3c2/C(=C/Nc2ccccn2)C1=O | 12.4 µM (inactive)
38 | CCCn1nc(C(=O)Nc2nc(-c3ccccn3)cs2)c2ccccc2c1=O | 9.03 µM
39 | COC(=O)C1=C(C)N(CCc2ccc(OC)cc2)C(=O)C1 | 33.5 µM (inactive)
40 | COc1ccc(-c2cc(-c3nnc(COC(=O)C4CC4)o3)c3ccccc3n2)cc1OC | 8.35 µM
41 | NC(=O)c1cc2ccccc2o/c1=N\NC(=O)c1ccc(F)cc1 | 7.99 µM
42 | CNC(=O)c1ccc(-c2sc3nc(N4CCOCC4)c4c(c3c2N)CC(C)(C)OC4)o1 | 21.3 µM (inactive)
43 | COc1cccc2cc(-c3cc(=O)oc4ccc(OCC(C)=O)cc34)oc12 | > 79 µM (inactive)
44 | COc1cc(C(=O)Nc2nc(-c3cccs3)cs2)cc(OC)c1OC | 8.7 µM
45 | O=C(C[C@H]1C/C=C\CC[C@H](Cc2ccc(F)cc2)C(=O)O[C@H](c2ccccc2)CNC1=O)N[C@H](CO)Cc1ccccc1 | 7.55 µM
